Results published in patent US7022317B2, “Heterocyclic derivatives of 2-oxothiazolidine-4-carboxylic acid, and use as active photoprotective agents” (L'Oreal, priority 2003, dated 2006).

Tested on: keratinocytes
Test: Active photoprotection against UVA oxidative stress induced on keratinocytes (DCFH-DA fluorescent probe)
Type: cell-based
Conditions: for % of fluorescence relative to the control cells exposed to UVA, TEST 1 / % of fluorescence relative to the control cells exposed to UVA, TEST 2: 24 hours preincubation, DCF fluorescence after UVA; for % of fluorescence relative to the control cells exposed to UVA, Mean: mean of TEST 1 and TEST 2
Procedure: The photoprotection evaluation technique is performed according to a well-known method (J. of Photochemistry and Photobiology B: Biology 57 (2000) 102–112 TOBI et al: Glutathione modulates the level of free radicals produced in UVA irradiated cells). This technique uses a fluorescent probe, a marker of intracellular global oxidative stress, 2′,7′-dichlorofluoresceine diacetate (DCFH-DA).
The use of DCFH-DA as an oxidative stress marker is based on its physicochemical properties. It is a nonionic apolar molecular capable of diffusing across cell membranes. Once inside the cell, DCFH-DA is hydrolysed by intracellular esterases to a non-fluorescent compound: DCFH or […]. In the presence of activated oxygen species, DCFH is rapidly oxidized to a highly fluorescent compound: DCF or 2,7-dichlorofluoresceine.
At confluence, the keratinocytes are incubated in the presence of a compound of formula (I) for 24 hours at 37° C., 5% CO2, in the culture medium, according to a dose effect (3 concentrations).
The keratinocytes, pretreated with a compound of formula (I), are rinsed and then incubated in the presence of DCFH-DA in the dark.
After this incubation, the DCFH-DA solution is removed and the cells are then exposed to UVA.
Comment: a non-exposed control plate is stored in the dark, at room temperature.
The fluorescence of the DCF is evaluated immediately after the exposure to UVA, via spectrofluorimetry (excitation: 480 nm; emission: 530 nm).
The results are expressed as % of fluorescence relative to the control cells exposed to UVA: […]

SMILES: O=C1NCC(=O)N2C(=O)SCC12 (stereo not shown) [Compound 2, Tetrahydrothiazolo[3,4-a]pyrazine-3,5,8-trione]
- % of fluorescence relative to the control cells exposed to UVA, TEST 1 (compound at 0.05 mM): 98%
- % of fluorescence relative to the control cells exposed to UVA, TEST 2 (compound at 0.05 mM): 86%
- % of fluorescence relative to the control cells exposed to UVA, Mean (compound at 0.05 mM): 92%
- % of fluorescence relative to the control cells exposed to UVA, TEST 1 (compound at 0.5 mM): 79%
- % of fluorescence relative to the control cells exposed to UVA, TEST 2 (compound at 0.5 mM): 74%
- % of fluorescence relative to the control cells exposed to UVA, Mean (compound at 0.5 mM): 76.5%
- % of fluorescence relative to the control cells exposed to UVA, TEST 1 (compound at 5 mM): 69%
- % of fluorescence relative to the control cells exposed to UVA, TEST 2 (compound at 5 mM): 58%
- reduction of fluorescence (optimum efficacy) (compound at 5 mM, UVA oxidative stress): about 36%
- % of fluorescence relative to the control cells exposed to UVA, Mean (compound at 5 mM): 63.5%
